Experimental findings from patent US11021441B2, “High solubility thioether quinones” (Wisconsin Alumni Research Foundation, priority 2017, dated 2021) are described below.

The nature of the series: Redox couple / cyclic voltammetry in aqueous 1 M H2SO4. Type of series: physicochemical. As to the method:
More preferably, a solution of mercaptoethanesulfonate is allowed to react with a suspension of benzoquinone in water (Scheme 16). 0.655 g of sodium mercaptoethanesulfonate in 10 ml of water with 60 microliters of acetic acid was treated with 0.438 g of benzoquinone and allowed to stir at room temperature for 45 minutes. The resulting mixture was filtered and the filtrate was extracted with three 5 ml portions of ethyl acetate. The aqueous phase was then diluted with 30 ml of ethanol and heated to clarify it. On cooling, crystals formed that gave ^1H and ^13C NMR spectra in D2O in accord with tetra-thioethylsulfonato hydroquinone, 52 (FIGS. 5A and 5B).
To 3.956 g of sodium 3-mercaptopropanesulfonate dispersed in 50 mL of nitrogen-purged N-methyl pyrrolidinone were added 10.5 mL of 2 M aqueous NaOH. Once mixed, 2.766 g of 1,8-dichloroanthraquinone were added (Scheme 28). The suspension was heated under nitrogen to 90° C. for six days then allowed to cool. 50 mL of water containing 1 mL of acetic acid was added to the cooled solution, which was further diluted with 25 mL water. The solution was extracted with four 50 mL portions of methylene chloride, and the aqueous phase was evaporated. The residue was dissolved with 35 mL of water and 60 mL of methanol was added. The mixture was heated until clear, and left to slowly cool. […]

Regarding `O=S(=O)([O-])CCSc1c(O)c(SCCS(=O)(=O)[O-])c(SCCS(=O)(=O)[O-])c(O)c1SCCS(=O)(=O)[O-].[Na+].[Na+].[Na+].[Na+]` [Compound 52, 2,3,5,6-tetrakis(ethylsulfanyl-2′-sulfonate)-1,4-hydroquinone tetrasodium salt], for the setting “aqueous 1 M H2SO4”, the reversible redox couple came to 0.63 V vs. NHE.
On to `O=C1c2cccc(SCCCS(=O)(=O)[O-])c2C(=O)c2c(SCCCS(=O)(=O)[O-])cccc21.[Na+].[Na+]` [Compound 109], for which, under “cyclic voltammetry in 1 M H2SO4”, the reduction potential result is recorded as “approximately 85 mV vs. NHE”.
